# Molecular target: DDA1-DDB1ΔB-DCAF15Δpro triplex with R1R2 of RBM39 (Homo sapiens, UniProt Q14498+Q66K64, Q66K64:DEL276-383)
# Experiment: TR-FRET, SPLAM-induced ternary complex formation, Eu-anti-His and APC-anti-FLAG
# Type: binding
structure (smiles),measurement,value
NS(=O)(=O)c1ccc(S(=O)(=O)Nc2cccc3c(Cl)c[nH]c23)cc1 [indisulam],EC50,5 nM

# From article doi:10.1101/758409v1 (biorxiv, 2019)
